{"source": "ChEMBL document CHEMBL3872207", "about": "“Aromatic heterocyclic esters of podophyllotoxin exert anti-MDR activity in human leukemia K562/ADR cells via ROS/MAPK signaling pathways” (Eur J Med Chem, 2016)", "key": {"[1]": {"experiment": "Antiproliferative activity against human K562/ADR cells measured after 72 hrs by CCK8 assay", "format": "functional, cell-based"}, "K562": {"tested_on": "K562", "experiment": "Resistance index, ratio of IC50 for human K562/ADR cells to IC50 for human K562 cells", "format": "functional"}, "[2]": {"experiment": "Antiproliferative activity against human K562 cells measured after 72 hrs by CCK8 assay", "format": "functional, cell-based", "details": "K562, 72 h"}, "[3]": {"experiment": "Potency index, ratio of doxorubicin IC50 to compound IC50 for antiproliferative activity against human K562/ADR cells", "format": "functional"}, "[4]": {"experiment": "Potency index, ratio of etoposide IC50 to compound IC50 for antiproliferative activity against human K562/ADR cells", "format": "functional"}}}
{"molecule": "COc1cc([C@@H]2c3cc4c(cc3[C@H](OC(=O)c3cnn(C)c3)[C@H]3COC(=O)[C@H]23)OCO4)cc(OC)c1OC", "values": [{"measurement": "IC50", "setting": "[1]", "value": 139, "unit": "nM"}, {"measurement": "Ratio IC50", "setting": "K562", "value": 2.673}, {"measurement": "IC50", "setting": "[2]", "value": 52, "unit": "nM"}]}
{"molecule": "COc1cc([C@@H]2c3cc4c(cc3[C@@H](O[C@@H]3O[C@@H]5CO[C@@H](C)O[C@H]5[C@H](O)[C@H]3O)[C@H]3COC(=O)[C@H]23)OCO4)cc(OC)c1O", "note": "[ETOPOSIDE]", "values": [{"measurement": "IC50", "setting": "[1]", "value": 2210, "unit": "nM"}, {"measurement": "Ratio IC50", "setting": "K562", "value": 6.408}, {"measurement": "IC50", "setting": "[2]", "value": 345, "unit": "nM"}]}
{"molecule": "COc1cc([C@@H]2c3cc4c(cc3[C@H](OC(=O)c3cn(C5CC5)c5cc(Cl)c(F)cc5c3=O)[C@H]3COC(=O)[C@H]23)OCO4)cc(OC)c1OC", "values": [{"measurement": "IC50", "setting": "[1]", "value": 550, "unit": "nM"}, {"measurement": "Ratio IC50", "setting": "K562", "value": 1.803}, {"measurement": "IC50", "setting": "[2]", "value": 305, "unit": "nM"}]}
{"molecule": "COc1cc([C@@H]2c3cc4c(cc3[C@H](OC(=O)c3cscn3)[C@H]3COC(=O)[C@H]23)OCO4)cc(OC)c1OC", "values": [{"measurement": "IC50", "setting": "[1]", "value": 74, "unit": "nM"}, {"measurement": "Ratio IC50", "setting": "K562", "value": 2.114}, {"measurement": "IC50", "setting": "[2]", "value": 35, "unit": "nM"}]}
{"molecule": "COc1cc([C@@H]2c3cc4c(cc3[C@H](OC(=O)c3nccc5ccccc35)[C@H]3COC(=O)[C@H]23)OCO4)cc(OC)c1OC", "values": [{"measurement": "IC50", "setting": "[1]", "value": 177, "unit": "nM"}, {"measurement": "Ratio IC50", "setting": "K562", "value": 2.765}, {"measurement": "IC50", "setting": "[2]", "value": 64, "unit": "nM"}]}
{"molecule": "COc1cc([C@@H]2c3cc4c(cc3[C@H](OC(=O)c3ccc5nc(C)ccc5c3)[C@H]3COC(=O)[C@H]23)OCO4)cc(OC)c1OC", "values": [{"measurement": "IC50", "setting": "[1]", "value": 61, "unit": "nM"}, {"measurement": "Ratio IC50", "setting": "K562", "value": 0.953}, {"measurement": "IC50", "setting": "[2]", "value": 64, "unit": "nM"}]}
{"molecule": "COc1cc([C@@H]2c3cc4c(cc3[C@H](OC(=O)c3cc(C)on3)[C@H]3COC(=O)[C@H]23)OCO4)cc(OC)c1OC", "values": [{"measurement": "IC50", "setting": "[1]", "value": 52, "unit": "nM"}, {"measurement": "Ratio IC50", "setting": "K562", "value": 2.08}, {"measurement": "IC50", "setting": "[2]", "value": 25, "unit": "nM"}]}
{"molecule": "COc1cc([C@@H]2c3cc4c(cc3[C@H](OC(=O)c3cn(C)cn3)[C@H]3COC(=O)[C@H]23)OCO4)cc(OC)c1OC", "values": [{"measurement": "IC50", "setting": "[1]", "value": 858, "unit": "nM"}, {"measurement": "Ratio IC50", "setting": "K562", "value": 10.86}, {"measurement": "IC50", "setting": "[2]", "value": 79, "unit": "nM"}]}
{"molecule": "COc1cccc2c1C(=O)c1c(O)c3c(c(O)c1C2=O)C[C@@](O)(C(=O)CO)C[C@@H]3O[C@H]1C[C@H](N)[C@H](O)[C@H](C)O1", "note": "[DOXORUBICIN]", "values": [{"measurement": "IC50", "setting": "[1]", "value": 18800, "unit": "nM"}, {"measurement": "Ratio IC50", "setting": "K562", "value": 85.359}, {"measurement": "IC50", "setting": "[2]", "value": 220, "unit": "nM"}]}
{"molecule": "COc1cc([C@@H]2c3cc4c(cc3[C@H](OC(=O)c3cnc5ccccc5n3)[C@H]3COC(=O)[C@H]23)OCO4)cc(OC)c1OC", "values": [{"measurement": "IC50", "setting": "[1]", "value": 34, "unit": "nM"}, {"measurement": "Ratio IC50", "setting": "K562", "value": 1.545}, {"measurement": "Ratio IC50", "setting": "[3]", "value": 552.323}, {"measurement": "IC50", "setting": "[2]", "value": 22, "unit": "nM"}, {"measurement": "Ratio IC50", "setting": "[4]", "value": 65.029}]}
{"molecule": "COc1cc([C@@H]2c3cc4c(cc3[C@H](OC(=O)c3nn(C)c5ccccc35)[C@H]3COC(=O)[C@H]23)OCO4)cc(OC)c1OC", "values": [{"measurement": "IC50", "setting": "[1]", "value": 115, "unit": "nM"}, {"measurement": "Ratio IC50", "setting": "K562", "value": 2.446}, {"measurement": "IC50", "setting": "[2]", "value": 47, "unit": "nM"}]}
{"molecule": "COc1cc([C@@H]2c3cc4c(cc3[C@H](OC(=O)c3cc5ccccc5s3)[C@H]3COC(=O)[C@H]23)OCO4)cc(OC)c1OC", "values": [{"measurement": "IC50", "setting": "[1]", "value": 466, "unit": "nM"}, {"measurement": "Ratio IC50", "setting": "K562", "value": 2.532}, {"measurement": "IC50", "setting": "[2]", "value": 184, "unit": "nM"}]}
